The subject of one assay is Bcl-2. As to the kind of experiment: Western blot analysis. It counts as cell-based, human. The settings on record: MCF-7, 0.05, 0.1 and 0.5 μM, 48 or 72 h. From the text: (§1) The apoptosis regulating proteins Bcl-2 and Mcl-1 were next investigated. The anti-apoptotic or pro-survival Bcl-2 protein is also a member of the Bcl-2 family. It prevents the release of a pro-apoptotic AIF (apoptosis inducing factor) and cytochrome c from the mitochondria into the cytoplasm and prevents apoptosis by sequestering caspases (apoptosis promoters). […] (Figure 9). Mcl-1 protein (an induced myeloid leukaemia cell differentiation protein) is another key anti-apoptotic member of the Bcl-2 family and is localised in the mitochondrial outer membrane. It binds and sequesters the pro-apoptotic Bax/Bak proteins and, thus, prevents the release of cytochrome c. Overexpression of the anti-apoptotic factors Mcl-1, Bcl-2 and Bcl-xL in acute myeloid leukaemia and acute lymphocytic leukaemia may be associated dysregulation of apoptosis. […] (Figure 10). Apoptosis can be triggered by a reduction in the expression levels of Mcl-1 and Bcl-2 (e.g., by drug treatment). […]
(§2) MCF-7 cells were seeded at a density of 1 × 10^5 cells/flask in T25 flasks. […] Equal quantities of protein (as determined using a BCA assay) were resolved by SDS-PAGE (12%) followed by transfer to PVDF membranes. […] Proteins were detected using enhanced chemiluminescent Western blot detection (Clarity Western ECL substrate) (Bio Rad) on the ChemiDoc MP System (Bio Rad). […]
For orientation: A western blot detects proteins with antibodies after separation by electrophoresis.

A further assay has as its system Mcl-1. Nature of the assay: Western blot analysis. Type of assay: cell-based, human. The settings on record: MCF-7, 0.05, 0.1 and 0.5 μM, 48 or 72 h.
Text: as §1, §2

The subject of the next assay is OVCAR-8. Nature of the assay: NCI-60 5 dose screen, Ovarian Cancer. The settings on record: Homo sapiens. Type of assay: cell-based.
The next assay has as its system CCRF-CEM. Nature of the assay: NCI-60 5 dose screen, leukaemia. The settings on record: Homo sapiens. Type of assay: cell-based.
The test system of another assay is K-562. Nature of the assay: NCI-60 5 dose screen, leukaemia. It counts as cell-based. The settings on record: Homo sapiens, K562.

For orientation: GI50 means the concentration at which growth is held to half of that of the control. Read a low GI50 as greater sensitivity of the cells.

Take `COc1ccc(C2C(Cl)C(=O)N2c2cc(OC)c(OC)c(OC)c2)cc1O` (centres unmarked) [Compound 10n, 3-Chloro-4-(3-hydroxy-4-methoxy-phenyl)-1-(3,4,5-trimethoxyphenyl)azetidin-2-one]: the “level of anti-apoptotic protein Bcl-2” value in the assay with Bcl-2 is recorded as “downregulated in a dose-dependent manner”. The “level of anti-apoptotic protein Mcl-1” value in the assay on Mcl-1 was “downregulated in a dose-dependent manner”.
Turning to `CCSc1ccc(C2C(Br)C(=O)N2c2cc(OC)c(OC)c(OC)c2)cc1` (centres unmarked) [Compound 16d, 3-Bromo-4-(4-(ethylthio)phenyl)-1-(3,4,5-trimethoxyphenyl)azetidin-2-one], the GI50 in the assay on OVCAR-8 was determined as 403 nM; in the assay with CCRF-CEM, 278 nM; in the assay with K-562, 54.5 nM.

The values above are taken from article PMC8624998, “Synthesis and Antiproliferative Evaluation of 3-Chloroazetidin-2-ones with Antimitotic Activity: Heterocyclic Bridged Analogues of Combretastatin A-4” (Pharmaceuticals, 2021).
